Earlier results as cited in patent US10258598B2, “Compounds for use in the prevention or treatment of cancer” ([…], priority 2014, dated 2019).
Where a name gives a salt, the structure may show the parent alone.

System: norepinephrine and dopamine stores in catecholaminergic neurons in the brain stem
Details: 1 mg/kg s.c.; cited from earlier work

## COc1cc2c(cc1OC)C1CC(=O)C(CC(C)C)CN1CC2 (stereo not shown) [Tetrabenazine, Tetrabenazine HCl]
  depletion of norepinephrine and dopamine from their stores: at least 90%
